Source: patent publication US6866872B1, “Withania somnifera Dunal extracts for increasing male sperm count” (Nippon Shinyaku Co., Ltd., priority 1999, dated 2005)

Experiments:
Slc:SD rats = assay: Test Example 2: genital organ weights 1 week after ethynylestradiol dosing for 10 days; assay type: in vivo, rat; details: ethynylestradiol 3 mg/kg orally once daily for 10 days, weighed 1 week after the course, n = 10
Description: Slc:SD rats aged 10 weeks (in groups of 10) were orally dosed with 3 mg/kg of the endocrine disturbing chemical ethynylestradiol suspended in 0.5% sodium carboxymethylcellulose (CMC) solution (ethynylestradiol 0.3 mg/mL) or, as control, 10 mL/kg of 0.5% CMC solution once daily in the morning for 10 days, and at 1 week after the administration course, the testis, epididymis, prostate and seminal vesicle were respectively weighed.
Rat husbandry conditions: room temperature 21˜25° C., humidity 45˜60%, artificial lighting 12 hrs (7:00 a.m.˜7:00 p.m.), ventilation frequency 15/hr, solid food (CE-2, CLEA Japan Inc.) and drinking water ad libitum.

[1] = tested on: rats with the genital organs impaired by ethynylestradiol; details: rat, in vivo
Description: Using rats with the genital organs impaired by ethynylestradiol as in Test Example 2, the sperm count and motile sperm rate were investigated.
From the right epididymis, the caudal epididymis was excised and weighed with Sartorius electronic balance LC620-S. The caudal epididymis was placed in a sperm collection vial containing 5 mL of BSA-Hanks solution and cut 3 times to cause the sperm to swim out. A 0.05 mL portion of the sperm fluid was sampled and diluted with 0.95 mL of BSA-Hanks solution for use as a diluted sperm fluid. The number of non-motile sperms in the diluted sperm fluid was determined with Thoma's hemocytometer. After this counting of non-motile sperms, the vessel containing the diluted sperm fluid was immersed in hot water and, after return to room temperature, the sperms were counted with the hemocytometer. […] Using the measured values, the motile sperm rate was calculated by means of the following equation [1]. Motile sperm rate (%)=(number of sperms−number of non-motile sperms)/number of sperms×100 [1] (2) Method for Determination of Sperm Count
The caudal epididymis in the sperm collection vial used in the above procedure (1) was further cut to release sperms and the fluid in the vial was filtered through a nylon-mesh sieve. The stock filtrate, 0.1 mL, was diluted with 1.9 mL of formalinized saline and the number of sperms was determined with Thoma's hemocytometer. When the sperm population in the sperm sample was considered to be too small (low turbidity), the stock sperm fluid was not diluted but the vessel was directly immersed in hot water and, after reutrn to room temperature, the number of sperms was determined. Moreover, the number of sperms (sperm count) per caudal epididymis was calculated using the number of sperms determined and the dilution factor by means of the equation given below, with the value per caudal epididymis unit weight (g) being taken as the sperm count/caudal epididymis and the value per epididymis as the sperm count/epididymis.
Sperm count=measured number of sperms×dilution factor Number of sperms/caudal epididymis=number of sperms determined×dilution factor/weight of the caudal epididymis epididymis (g) Number of sperms/epididymis=(number of sperms/caudal epididymis)×weight of epididymis (g)

SD rats = assay: Test Example 1: genital organ weights after ethynylestradiol dosing for 2 weeks; assay type: in vivo, rat; details: ethynylestradiol 3 mg/kg orally once daily for 2 weeks, n = 8
Description: SD rats aged 11 weeks (in groups of 8) were orally dosed with 3 mg/kg of the endocrine disturbing chemical ethynylestradiol suspended in 0.5% sodium carboxymethylcellulose (CMC) solution (ethynylestradiol 0.6 mg/mL) or, as control, 5 mL/kg of 0.5% CMC solution once daily in the morning for 2 weeks, and after the administration course, the testis, epididymis, prostate and seminal vesicle were respectively weighed.
Rat husbandry conditions: room temperature 21˜25° C., humidity 45˜60%, artificial lighting 12 hrs (7:00 a.m.˜7:00 p.m.), ventillation frequency 15/hr, solid food (CE-2, CLEA Japan Inc.) and drinking water ad libitum.

For C#C[C@]1(O)CC[C@H]2[C@@H]3CCc4cc(O)ccc4[C@H]3CC[C@@]21C [Ethynylestradiol, ethynylestradiol], the Epididymis weight (Slc:SD rats) was 154.5 ± mg/100 gBW, the Prostate weight (Slc:SD rats) was 102.3 ± mg/100 gBW and the Seminal vesicle weight (Slc:SD rats) was 170.0 ± mg/100 gBW. The Testis weight (Slc:SD rats) was 731.3 ± mg/100 gBW, the “Caudal epididymis (weight, g)” value [1] was 0.076 g and the Motile sperm rate [1] was 40.6 ± %. The Sperm count [1] was 13.0 ± x10^6, the Sperm count/caudal epididymis [1] was 160.2 ± x10^6 and the Sperm count/epididymis [1] was 88.8 ± x10^6. For the same compound, the Epididymis weight (SD rats) was 118 mg/100 g body weight, the Prostate weight (SD rats) was 77.4 mg/100 g body weight and the Seminal vesicle weight (SD rats) was 88.1 mg/100 g body weight. It also gave a Testis weight (SD rats) of 705 mg/100 g body weight.
